Values of other authors, collected in patent publication US12059469B2, “Compositions and methods for wound treatment” (priority 2017, dated 2024).

Columns and labels:
[1] = test system: Wnt/β-catenin-mediated transcription; details: through TNK 1 and 2 inhibition
mouse ear punch wound = details: topical application, dissolved in DMSO

## Oc1nc(-c2ccc(C(F)(F)F)cc2)nc2c1CSCC2 [XAV939, 3,5,7,8-Tetrahydro-2-[4-(trifluoromethyl)phenyl]-4H-thiopyrano[4,3-d]pyrimidin-4-one]
[1]
  Wnt/β-catenin-mediated transcription: selectively inhibits
CRE
  effect on CRE: does not affect
NF-κK
  effect on NF-κK: does not affect
TGF-β
  effect on TGF-β: does not affect
Mouse ear punch wound
  fibrosis (scarring): reduced fibrosis
  rate of wound closure: significantly increased rate of wound closure
other
  aqueous solubility: < 1000 µg/mL
